Experimental data: ChEMBL document CHEMBL4007397, “Discovery of First-in-Class, Potent, and Orally Bioavailable Embryonic Ectoderm Development (EED) Inhibitor with Robust Anticancer Efficacy” (J Med Chem, 2017)

Key:
Polycomb protein EED [1] = biological target: T1, Polycomb protein EED (Homo sapiens, UniProt O75530)
Description: Inhibition of recombinant N-terminal GST-tagged EED (76 to 441 residues) (unknown origin) expressed in Escherichia coli BL21-CodonPlus(DE3)-RIL assessed as reduction in SAH production using H3[21-44,K27Me0) peptide as substrate measured after 20 mins by LC/MS/MS method

[2] = Protein binding in mouse plasma assessed as unbound fraction; format: ADME, cell-free
Mus musculus [3] = assay: Dose normalized AUC in CD-1 mouse at 1 mg/kg, iv by LC-MS/MS analysis; format: ADME, organism-based; details: in vivo
KARPAS-422 = assay: Antiproliferative activity against human KARPAS422 cells harboring monoallelic Y641N EZH2 mutation assessed as reduction in cell viability measured every 3 to 4 days up to 14 days by Beckman Coulter-based method; format: functional
Polycomb protein EED [4] = biological target: T1, Polycomb protein EED; assay: Inhibition of EED in human G401 cells assessed as reduction in global H3K27me3 level after 48 hrs by ELISA; format: cell-based
[5] = Oral bioavailability in CD-1 mouse at 2 mg/kg by LC-MS/MS analysis; format: ADME, organism-based; details: CD-1, mouse, in vivo
Mus musculus [6] = assay: Dose normalized unbound AUC in CD-1 mouse at 2 mg/kg, po by LC-MS/MS analysis; format: ADME, organism-based; details: in vivo
Mus musculus [7] = assay: Dose normalized AUC in CD-1 mouse at 2 mg/kg, po by LC-MS/MS analysis; format: ADME, organism-based; details: in vivo
[8] = Hepatic extraction ratio in mouse liver microsomes; format: ADME, microsome; details: read-out: ERH

T1 sequence (O75530 whole entry): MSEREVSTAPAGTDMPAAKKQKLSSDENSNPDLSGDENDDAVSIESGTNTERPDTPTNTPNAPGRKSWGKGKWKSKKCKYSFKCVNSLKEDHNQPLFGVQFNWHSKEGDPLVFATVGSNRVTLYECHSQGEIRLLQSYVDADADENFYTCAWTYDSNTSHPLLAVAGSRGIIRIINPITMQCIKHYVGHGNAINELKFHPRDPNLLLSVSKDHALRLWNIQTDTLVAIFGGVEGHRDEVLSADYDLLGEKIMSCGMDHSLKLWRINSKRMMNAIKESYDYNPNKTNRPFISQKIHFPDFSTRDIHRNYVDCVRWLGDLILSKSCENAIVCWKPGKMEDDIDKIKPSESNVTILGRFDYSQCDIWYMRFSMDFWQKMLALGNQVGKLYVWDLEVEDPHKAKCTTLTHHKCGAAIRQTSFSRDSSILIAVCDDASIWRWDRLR

Row | Structure (SMILES) | IC50 (Polycomb protein EED [1]) [µM] | other results
1 | CN(C)Cc1ccc(-c2cnc(NCc3ccno3)n3cnnc23)cc1 | 0.13 | 
2 | N#Cc1cc(-c2ccccc2)c2nncn2c1NCc1ccco1 | 0.062 | 
3 | CN(C)Cc1ccc(-c2cnc(NCc3cnco3)n3cnnc23)cc1 | 0.29 | 
4 | CN(C)Cc1ccc(-c2cc(C#N)c(NCc3ccon3)n3cnnc23)cc1 | 0.069 | 
5 | CN(C)Cc1ccc(-c2cnc(NCc3ccccc3)n3cnnc23)cc1 | 0.049 | 
6 | CN(C)Cc1ccc(-c2cc(C#N)c(NCc3ccoc3)n3cnnc23)cc1 | 0.009 | 
7 | CN(C)Cc1ccc(-c2cc(C#N)c(NCc3cccs3)n3cnnc23)cc1 | 0.02 | 
8 | CN(C)Cc1ccc(-c2cc(C#N)c(NCc3ccco3)n3cnnc23)cc1 | 0.009 to 0.013 | 
9 | CN(C)Cc1ccc(-c2cnc(NCc3ccc(F)s3)n3cnnc23)cc1 | 0.15 | 
10 | c1ccc(-c2ccc(NCc3ccco3)n3cncc23)cc1 | 14.8 | 
11 | N#Cc1cc(-c2ccccc2F)c2nncn2c1NCc1ccco1 | 0.03 | fraction unbound [2]: 0.0281; AUC/dose (Mus musculus [3]): 1751 nM·h; IC50 (KARPAS-422): 0.076 µM; IC50 (Polycomb protein EED [4]): 0.21 µM; bioavailability [5]: 42%; fAUC/dose (Mus musculus [6]): 20.1 nM·h; AUC/dose (Mus musculus [7]): 714 nM·h; hepatic extraction ratio [8]: 0.8
12 | CN(C)Cc1ccc(-c2cc(C#N)c(NCc3ccc(F)s3)n3cnnc23)cc1 | 0.51 | 
13 | COc1ccccc1CNc1ncc(-c2ccc(CN(C)C)cc2)c2nncn12 | 0.094 | 
14 | CN(C)Cc1ccc(-c2cnc(NCc3ccon3)n3cnnc23)cc1 | 0.77 | 
15 | CN(C)Cc1ccc(-c2cc(C#N)c(NCc3ccno3)n3cnnc23)cc1 | 0.069 | 
16 | CN(C)Cc1ccc(-c2cnc(NCc3ccco3)n3cnnc23)cc1 | 0.013 | 
17 | CN(C)Cc1ccc(-c2cc(C#N)c(NCc3cnco3)n3cnnc23)cc1 | 0.15 | 
